Molecules are shown by their SMILES.

The subject of the first experiment is PDE4. Kind of experiment: Evaluation of PDE4 inhibitory activity, scintillation proximity assay. The format is biochemical. Conditions: scintillation proximity assay; class symbols of Evaluation 1; read-out: PDE4 Inhibitory Activity (concentration for the inhibition rate of 50%, IC50), Evaluation 1. The method in brief:
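IC50 was derived from inhibition curves, referenced to an enzyme-free blank and a DMSO-only control. Compound, PDE4 preparation and tritiated cAMP reacted 120 min at RT in Tris-HCl buffer (pH 7.4) with MgCl2, EGTA and BSA; YSi-SPA beads with ZnSO4 bound product before scintillation counting.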
(SPA uses beads or plates that emit light when radiolabelled molecules are held near them.)
For the compound `CC(=O)c1cc(-c2nccs2)c2oc(N3CC4CC(C3)N4)nc2c1C(F)(F)F` [Example 180, 1-(2-(3,6-Diazabicyclo[3.1.1]heptan-3-yl)-7-(thiazol-2-yl)-4-(trifluoromethyl)benzo[d]oxazol-5-yl)ethan-1-one], the IC50 is under 100 nM. On the same count and under the same terms, under `OC(c1cc(-c2nccs2)c2oc(N3CC4CC(C3)N4)nc2c1)C(F)(F)F` (centres unmarked) [Example 135, 1-(2-(3,6-Diazabicyclo[3.1.1]heptan-3-yl)-7-(thiazol-2-yl)benzo[d]oxazol-5-yl)-2,2,2-trifluoroethan-1-ol] stands under 100 nM; under `N#CCOc1cc(-c2nccs2)c2oc(N3CC4CCC(C3)N4)nc2c1` [Example 73, 2-((2-(3,8-Diazabicyclo[3.2.1]octan-3-yl)-7-(thiazol-2-yl)benzo[d]oxazol-5-yl)oxy)acetonitrile], under 100 nM. The same measure, in the same setting: next, `FC(F)(F)Oc1c(Cl)cc(-c2nccs2)c2oc(N3CC4CCC(C3)N4)nc12` [Example 1, 2-(3,8-Diazabicyclo[3.2.1]octan-3-yl)-5-chloro-7-(thiazol-2-yl)-4-(trifluoromethoxy)benzo[d]oxazole]: under 100 nM; `FC(F)(F)c1cc(-c2nccs2)c2oc(N3CC4CC(C3)N4)nc2c1` [Example 52, 2-(3,6-Diazabicyclo[3.1.1]heptan-3-yl)-7-(thiazol-2-yl)-5-(trifluoromethyl)benzo[d]oxazole]: under 100 nM; `CC(C)c1cc(-c2nccs2)c2oc(N3CC4CCCC(C3)N4)nc2c1` [Example 24, 2-(3,9-Diazabicyclo[3.3.1]nonan-3-yl)-5-isopropyl-7-(thiazol-2-yl)benzo[d]oxazole]: under 100 nM. The same measure, in the same setting: next, `COCc1cc(-c2nccs2)c2oc(N3CC4CCC(C3)N4)nc2c1C(F)(F)F` [Example 167, 2-(3,8-Diazabicyclo[3.2.1]octan-3-yl)-5-(methoxymethyl)-7-(thiazol-2-yl)-4-(trifluoromethyl)benzo[d]oxazole]: under 100 nM; `OC(c1ccc(-c2nccs2)c2oc(N3CC4CCC(C3)N4)nc12)C(F)F` (centres unmarked) [Example 128, 1-(2-(3,8-Diazabicyclo[3.2.1]octan-3-yl)-7-(thiazol-2-yl)benzo[d]oxazol-4-yl)-2,2-difluoroethan-1-ol]: under 100 nM. As for `CS(=O)(=O)c1cc(-c2nccs2)c2oc(N3CC4CCC(C3)N4)nc2c1` [Example 45, 2-(3,8-Diazabicyclo[3.2.1]octan-3-yl)-5-(methylsulfonyl)-7-(thiazol-2-yl)benzo[d]oxazole], the IC50 was under 100 nM. Still for that read-out and setting: under `CN(C)C(=O)c1ccc(-c2nccs2)c2oc(N3CC4CCC(C3)N4)nc12` [Example 115, 2-(3,8-Diazabicyclo[3.2.1]octan-3-yl)-N,N-dimethyl-7-(thiazol-2-yl)benzo[d]oxazole-4-carboxamide] stands under 100 nM.

For `CC(C)(O)COC(c1ccc(-c2nccs2)c2oc(N3CC4CC(C3)N4)nc12)C(F)F` (centres unmarked) [Example 127, 1-(1-(2-(3,6-Diazabicyclo[3.1.1]heptan-3-yl)-7-(thiazol-2-yl)benzo[d]oxazol-4-yl)-2,2-difluoroethoxy)-2-methylpropan-2-ol], the IC50 was under 100 nM. The same measure, in the same setting: next, `Clc1ccc(-c2nccs2)c2oc(N3CC4CCCC(C3)N4)nc12` [Example 38, 2-(3,9-Diazabicyclo[3.3.1]nonan-3-yl)-4-chloro-7-(thiazol-2-yl)benzo[d]oxazole]: under 100 nM; `CCOC(c1cc(-c2nccs2)c2oc(N3CC4CCC(C3)N4)nc2c1)C(F)(F)F` (centres unmarked) [Example 148, 2-(3,8-Diazabicyclo[3.2.1]octan-3-yl)-5-(1-ethoxy-2,2,2-trifluoroethyl)-7-(thiazol-2-yl)benzo[d]oxazole]: under 100 nM. Still for that read-out and setting: next, `FC(F)(F)c1c(Cl)cc(-c2nccs2)c2oc(N3CC4COCC(C3)N4)nc12` [Example 19, 7-(5-Chloro-7-(thiazol-2-yl)-4-(trifluoromethyl)benzo[d]oxazol-2-yl)-3-oxa-7,9-diazabicyclo[3.3.1]nonane]: under 100 nM; `Clc1ccc(-c2nccs2)c2oc(N3CC4CC(C3)N4)nc12` [Example 37, 2-(3,6-Diazabicyclo[3.1.1]heptan-3-yl)-4-chloro-7-(thiazol-2-yl)benzo[d]oxazole]: under 100 nM; `COC(C)(C)c1cc(-c2nccs2)c2oc(N3CC4CCC(C3)N4)nc2c1C(F)(F)F` [Example 171, 2-(3,8-Diazabicyclo[3.2.1]octan-3-yl)-5-(2-methoxypropan-2-yl)-7-(thiazol-2-yl)-4-(trifluoromethyl)benzo[d]oxazole]: under 100 nM. Same read-out and setting: under `FC(F)(F)c1ccc(-c2nccs2)c2oc(N3CC4CCCC(C3)N4)nc12` [Example 33, 2-(3,9-Diazabicyclo[3.3.1]nonan-3-yl)-7-(thiazol-2-yl)-4-(trifluoromethyl)benzo[d]oxazole] stands under 100 nM; under `c1csc(-c2cc(CN3CCOCC3)cc3nc(N4CC5CCC(C4)N5)oc23)n1` [Example 168, 2-(3,8-Diazabicyclo[3.2.1]octan-3-yl)-5-(morpholinomethyl)-7-(thiazol-2-yl)benzo[d]oxazole], under 100 nM; under `CC(=O)c1cc(-c2nccs2)c2oc(N3CC4CC(C3)N4)nc2c1` [Example 109, 1-(2-(3,6-Diazabicyclo[3.1.1]heptan-3-yl)-7-(thiazol-2-yl)benzo[d]oxazol-5-yl)ethan-1-one], under 100 nM.

On to `Oc1ccc(-c2nccs2)c2oc(N3CC4CC(C3)N4)nc12` [Example 79, 2-(3,6-Diazabicyclo[3.1.1]heptan-3-yl)-7-(thiazol-2-yl)benzo[d]oxazol-4-ol], for which the IC50 is under 100 nM. Take `CC(O)COC(c1cc(-c2nccs2)c2oc(N3CC4CCC(C3)N4)nc2c1)C(F)(F)F` (centres unmarked) [Example 155, 1-(1-(2-(3,8-Diazabicyclo[3.2.1]octan-3-yl)-7-(thiazol-2-yl)benzo[d]oxazol-5-yl)-2,2,2-trifluoroethoxy)propan-2-ol]: the IC50 is under 100 nM. Still for that read-out and setting: next, `CC(C)c1cc(-c2nccs2)c2oc(N3CC4COCC(C3)N4)nc2c1` [Example 23, 7-(5-Isopropyl-7-(thiazol-2-yl)benzo[d]oxazol-2-yl)-3-oxa-7,9-diazabicyclo[3.3.1]nonane]: 100 to 1000 nM. On the same count and under the same terms, next, `CC(C)(O)c1cc(-c2nccs2)c2oc(N3CC4CCC(C3)N4)nc2c1` [Example 172, 2-(2-(3,8-Diazabicyclo[3.2.1]octan-3-yl)-7-(thiazol-2-yl)benzo[d]oxazol-5-yl)propan-2-ol]: under 100 nM; `COc1ccc(-c2nccs2)c2oc(N3CC4CC(C3)N4)nc12` [Example 76, 2-(3,6-Diazabicyclo[3.1.1]heptan-3-yl)-4-methoxy-7-(thiazol-2-yl)benzo[d]oxazole]: under 100 nM.

Staying with this experiment, now noted: scintillation proximity assay; read-out: PDE4 Inhibitory Activity (Evaluation 1; concentration for the inhibition rate of 50%).
For the compound `COC(C)c1cc(-c2nccs2)c2oc(N3CC4CCC(C3)N4)nc2c1C(F)(F)F` (centres unmarked) [Example 184, 2-(3,8-Diazabicyclo[3.2.1]octan-3-yl)-5-(1-methoxyethyl)-7-(thiazol-2-yl)-4-(trifluoromethyl)benzo[d]oxazole], the IC50 was under 100 nM. Take `O=C(O)c1ccc(-c2nccs2)c2oc(N3CC4CCC(C3)N4)nc12` [Example 238, 2-(3,8-Diazabicyclo[3.2.1]octan-3-yl)-7-(thiazol-2-yl)benzo[d]oxazole-4-carboxylic acid]: the IC50 is under 100 nM. The same measure, in the same setting: next, `COC(C)c1ccc(-c2nccs2)c2oc(N3CC4CCC(C3)N4)nc12` (centres unmarked) [Example 242, 2-(3,8-Diazabicyclo[3.2.1]octan-3-yl)-4-(1-methoxyethyl)-7-(thiazol-2-yl)benzo[d]oxazole]: under 100 nM; `CC(C)(O)C(Oc1ccc(-c2nccs2)c2oc(N3CC4CC(C3)N4)nc12)C(F)(F)F` (centres unmarked) [Example 313, 3-((2-(3,6-Diazabicyclo[3.1.1]heptan-3-yl)-7-(thiazol-2-yl)benzo[d]oxazol-4-yl)oxy)-4,4,4-trifluoro-2-methylbutan-2-ol]: under 100 nM. Regarding `O=S(=O)(c1ccc(-c2nccs2)c2oc(N3CC4CC(C3)N4)nc12)N1CCCC1` [Example 390, 2-(3,6-Diazabicyclo[3.1.1]heptan-3-yl)-4-(pyrrolidin-1-ylsulfonyl)-7-(thiazol-2-yl)benzo[d]oxazole], the IC50 was under 100 nM. Still for that read-out and setting: next, `CNS(=O)(=O)c1ccc(-c2nccs2)c2oc(N3CC4CC(C3)N4)nc12` [Example 386, 2-(3,6-Diazabicyclo[3.1.1]heptan-3-yl)-N-methyl-7-(thiazol-2-yl)benzo[d]oxazole-4-sulfonamide]: under 100 nM; `CN(CCO)C(=O)c1cc(-c2nccs2)c2oc(N3CC4CCC(C3)N4)nc2c1OC(F)(F)F` [Example 193, 2-(3,8-Diazabicyclo[3.2.1]octan-3-yl)-N-(2-hydroxyethyl)-N-methyl-7-(thiazol-2-yl)-4-(trifluoromethoxy)benzo[d]oxazole-5-carboxamide]: under 100 nM. `CC(O)c1cc(-c2nccs2)c2oc(N3CC4CC(C3)N4)nc2c1OC(F)(F)F` (centres unmarked) [Example 273, 1-(2-(3,6-Diazabicyclo[3.1.1]heptan-3-yl)-7-(thiazol-2-yl)-4-(trifluoromethoxy)benzo[d]oxazol-5-yl)ethan-1-ol]: the IC50 is under 100 nM. Regarding `CC(C)(O)c1cc(-c2nccs2)c2oc(N3CC4CCC(C3)N4O)nc2c1C(F)(F)F` [Example 381, 3-(5-(2-Hydroxypropan-2-yl)-7-(thiazol-2-yl)-4-(trifluoromethyl)benzo[d]oxazol-2-yl)-3,8-diazabicyclo[3.2.1]octan-8-ol], the IC50 was over 1000 nM.

For `FC(F)Oc1ccc(-c2nccs2)c2oc(N3CC4CCC(C3)N4)nc12` [Example 263, 2-(3,8-Diazabicyclo[3.2.1]octan-3-yl)-4-(difluoromethoxy)-7-(thiazol-2-yl)benzo[d]oxazole], the IC50 is under 100 nM. Turning to `FC(F)(Oc1ccc(-c2nccs2)c2oc(N3CC4CC(C3)N4)nc12)c1nc2ccccc2o1` [Example 403, 4-(Benzo[d]oxazol-2-yldifluoromethoxy)-2-(3,6-diazabicyclo[3.1.1]heptan-3-yl)-7-(thiazol-2-yl)benzo[d]oxazole], the IC50 is under 100 nM.

The values are drawn from patent US12239643B2, “Therapeutic agent for inflammatory diseases, autoimmune diseases, fibrotic diseases, and cancer diseases” (MEIJI SEIKA PHARMA CO., LTD., priority 2018, dated 2025).
